# Measured values taken from US9962383B2, “Compounds, compositions and methods of agelastatin alkaloids” (Massachusetts Institute of Technology, priority 2013, dated 2018).
# Experiments:
# [1] = test system: human cell lines (U-937, HeLa, A549, BT549, IMR90); test: Ability to induce cell death in the panel of five human cell lines (Table 3); assay type: cell-based; details: 48-hour exposure, 1 nM to 10 μM, cell lines of Table 3
# Procedure: Six (−)-agelastatins along with eight closely related derivatives prepared in the above examples were tested (Table 3). The six (−)-agelastatin alkaloids (1-6, respectively), (−)-O-methyl-di-epi-agelastatin A (50), (−)-dehydroagelastatin A (51), (−)-di-epi-agelastatin C (52), (+)-O-methyl-pre-agelastatin A and D (39 and 53, respectively), along with bicyclic pyrroles (+)-44, (+)-45, and triazone (+)-48 were tested for their ability to induce cell death in four human cancer cell lines (U-937, lymphoma; HeLa, cervical carcinoma; A549, non-small cell lung carcinoma; and BT549, breast carcinoma) and one immortalized normal human cell line (IMR90, lung fibroblasts) after a 48-hour exposure. […] Furthermore, enhanced activities in U-937 (20×) cell relative to the other cell lines (Table 3) were observed.
# (§1) Adherent cells (HeLa, A549, BT549, and IMR90) were added into 96-well plates (5,000 cells/well for HeLa cell line; 2,000 cells/well for A549, BT549, and IMR90 cell lines) in 100 μL media and were allowed to adhere for 2-3 hours. Compounds were solubilized in DMSO as 100× stocks, added directly to the cells (100 μL final volume), and tested over a range of concentrations (1 nM to 10 μM) in triplicate (1% DMSO final) on a half-log scale. DMSO and cell-free wells served as the live and dead control, respectively. After 48 h of continuous exposure, the plates were evaluated using the SRB colorimetric assay as described previously (V. Vichai, K. Kirtikara, Nature Prot., 2006, 1, 1112). Briefly, media was removed from the plate, and cells were fixed by the addition of 100 μL cold 10% trichloroacetic acid in water. After incubating at 4° C. for 1 h, the plates were washed in water and allowed to dry. Sulforhordamine B was added as a 0.057% solution in 1% acetic acid (100 μL), and the plates were incubated at room temperature for 30 min, washed in 1% acetic acid, and allowed to dry. The dye was solubilized by adding 10 mM Tris base solution (pH 10.5, 200 μL) and incubating at room temperature for 30 min Plates were read at λ=510 nm. IC50 values were determined from three or more independent experiments using TableCurve (San Jose, Calif.).
# In a 96-well plate, compounds were pre-added as DMSO stocks (1% final) in triplicate to achieve final concentrations of 1 nM to 10 μM on a half log scale. DMSO and cell-free wells served as the live and dead control, respectively. Suspension cells (U-937, CEM, CA46, Daudi, HL-60, and Jurkat; 10,000 cells/well) cells were distributed in 100 μL media to the compound-containing plate. After 48 h, cell viability was assessed by adding 20 μL of a PMS/MTS solution (A. H. Cory, T. C. Owen, J. A. Barltrop, J. G. Cory, Cancer Commun., 1991, 3, 207) to each well, allowing the dye to develop at 37° C. until the live control had processed MTS, and reading the absorbance at λ=490 nm. IC50 values were determined from three or more independent experiments using TableCurve (San Jose, Calif.).
# synchronized U-937 cells = test: Cell cycle arrest in thymidine-synchronized U-937 cells; assay type: cell-based, human; details: 16 hours, PI, flow cytometry
# Procedure: Samples were fixed, treated with an RNAse, stained with PI, and analyzed by flow cytometry. Taxol, a microtubule stabilizer, was used as a positive control. Error bars represent standard deviation of the mean, n=3. * p<0.01. PI=propidium iodide.
# U-937 cells were split to 50% confluency (250,000 cells/mL) and treated with 2 mM thymidine for 10 hours. The cells were then pelleted (500 g, 3 minutes) and washed with PBS before being resuspended in thymidine-free media and allowed to recover for 13 hours. The cells were then re-blocked with 2 mM thymidine for 10 hours, and then washed with PBS as before and resuspended in media (250,000 cells/mL).
# DMSO stocks of compounds were added to a 24-well plate in triplicate (0.2% DMSO final), after which 1 mL of the prepared cell suspension was added. Following a 16 h incubation, the cell suspensions were transferred to 2 mL tubes and pelleted (600 g, 3 min). The media was removed by aspiration, and the cells were fixed with 0.5 mL of ice cold 70% ethanol with vortexing. The samples were fully fixed at −20° C. for 3 hours. The samples were then pelleted (1000 g, 5 min) and the supernatant was removed via aspiration. […] Prior to reading, the samples were taken up in 150 μL of 50 μg/mL propidium iodide in PBS and transferred to flow cytometry tubes. Samples were analyzed based on whole, single cells.
# IMR90 = test: 48-hour IC50 by SRB, IMR90  lung fibroblasts; assay type: cell-based, human; details: IMR90 immortalized lung fibroblasts
# Procedure: (§2) Cells were grown in media supplemented with fetal bovine serum (FBS) and antibiotics (100 μg/mL penicillin and 100 U/mL streptomycin). […] Cells were incubated at 37° C. in a 5% CO2, 95% humidity atmosphere.
# as §1, with “After 48 h of continuous exposure, the plates were evaluated using the SRB colorimetric assay as described previously (V. Vichai, K. Kirtikara, Nature Prot., 2006, 1, 1112).” left out, “The dye was solubilized by adding 10 mM Tris base solution (pH 10.5, 200 μL) and incubating at room temperature for 30 min Plates were read at λ=510 nm.” left out
# Daudi = test: 48-hour IC50 by MTS, Daudi Burkitt's lymphoma cells; assay type: cell-based, human
# Procedure: as §2
# (§3) In a 96-well plate, compounds were pre-added as DMSO stocks (1% final) in triplicate to achieve final concentrations of 1 nM to 10 μM on a half log scale. DMSO and cell-free wells served as the live and dead control, respectively. […] IC50 values were determined from three or more independent experiments using TableCurve (San Jose, Calif.).
# A549 = test: 48-hour IC50 by SRB, A549 non-small cell lung carcinoma cells; assay type: cell-based, human
# Procedure: as §2
# as §1, with “After 48 h of continuous exposure, the plates were evaluated using the SRB colorimetric assay as described previously (V. Vichai, K. Kirtikara, Nature Prot., 2006, 1, 1112).” left out, “The dye was solubilized by adding 10 mM Tris base solution (pH 10.5, 200 μL) and incubating at room temperature for 30 min Plates were read at λ=510 nm.” left out
# CA46 = test: 48-hour IC50 by MTS, CA46 Burkitt's lymphoma cells; assay type: cell-based, human
# Procedure: as §2, §3
# U-937 = test: 48-hour IC50 by MTS, U-937 lymphoma cells; assay type: cell-based, human
# Procedure: as §2, §3
# [2] = test system: procaspase-3 and PARP-1 cleavage; test: Western blot analysis of procaspase-3 and PARP-1 cleavage in U-937 cells; assay type: cell-based, human; details: 24 hours
# Procedure: FIG. 2. […] Western blot analysis of procaspase-3 and PARP-1 cleavage at 24 hours in U-937 cells using β-actin as loading control. Compounds were tested at indicated concentrations and STS (10 nM); C3=caspase-3; PARP=poly(ADP-ribose) polymerase 1; PC3=procaspase-3; STS=staurosporine.
# Jurkat = test: 48-hour IC50 by MTS, Jurkat acute T-cell leukemia cells; assay type: cell-based, human
# Procedure: as §2, §3
# BT549 = test: 48-hour IC50 by SRB, BT549 breast carcinoma cells; assay type: cell-based, human
# Procedure: as §2
# as §1, with “After 48 h of continuous exposure, the plates were evaluated using the SRB colorimetric assay as described previously (V. Vichai, K. Kirtikara, Nature Prot., 2006, 1, 1112).” left out, “The dye was solubilized by adding 10 mM Tris base solution (pH 10.5, 200 μL) and incubating at room temperature for 30 min Plates were read at λ=510 nm.” left out
compound,measurement,setting,value
"CN1C(=O)N[C@H]2[C@@H]3NC(=O)c4ccc(Br)n4[C@@H]3C[C@]21O [(−)-1, (−)-agelastatin A]",activity (ability to induce cell death) in words,[1],highest potency in all cell lines tested
same,G2/M cell cycle arrest,synchronized U-937 cells,dose-dependent G2/M cell cycle arrest
same,IC50,IMR90,1110 ± 350 nM
same,IC50,Daudi,20 ± 3 nM
same,IC50,A549,1050 ± 140 nM
same,IC50,CA46,187 ± 71 nM
same,IC50,U-937,67 ± 3 nM
same,activation of procaspase-3 to active caspase-3 and cleavage of PARP-1,[2],dose-dependent activation
same,IC50,Jurkat,74 ± 7 nM
same,IC50,BT549,278 ± 76 nM
